Reference: ChEMBL document CHEMBL5325502, “Discovery of 2,4-diphenyl-substituted thiazole derivatives as PRMT1 inhibitors and investigation of their anti-cervical cancer effects” (Bioorg Med Chem, 2023)
The source made the active and inactive calls. The rule behind the calls is not given here.

Key:
[1] = target: T1, Protein arginine N-methyltransferase 1 (Homo sapiens, UniProt Q99873); assay: Displacement of [3H]SAM from PRMT1 (unknown origin) at 10 uM preincubated for 15 mins followed by [3H]SAM addition measured after 60 mins by radiometric/luminescence based assay relative to control; conditions: time 75.0 min
Target sequence in this assay (Q99873 whole entry, looked up): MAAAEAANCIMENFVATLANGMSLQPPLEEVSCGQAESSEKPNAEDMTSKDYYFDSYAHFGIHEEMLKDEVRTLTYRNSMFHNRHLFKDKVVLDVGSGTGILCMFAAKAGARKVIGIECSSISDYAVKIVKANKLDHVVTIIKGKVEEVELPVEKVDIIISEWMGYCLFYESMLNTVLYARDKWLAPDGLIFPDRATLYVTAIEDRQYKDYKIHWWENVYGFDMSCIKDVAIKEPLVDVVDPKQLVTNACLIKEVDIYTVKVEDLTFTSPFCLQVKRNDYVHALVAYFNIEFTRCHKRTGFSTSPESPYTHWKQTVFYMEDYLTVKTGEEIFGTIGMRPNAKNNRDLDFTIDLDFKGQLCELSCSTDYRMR

HeLa [2] = assay: Downregulation of DDAH expression in human HeLa cells at 2 to 8 uM incubated for 48 hrs by Western blot analysis; type: functional, cell-based; conditions: dose 2-8 µM
HeLa [3] = assay: Effect on SDMA expression in human HeLa cells at 2 to 8 uM incubated for 48 hrs by Western blot analysis; type: functional, cell-based; conditions: dose 2-8 µM
HeLa [4] = assay: Antiproliferative activity against human HeLa cells incubated for 48 hrs by CCK8 assay; type: functional, cell-based
HeLa [5] = assay: Downregulation of MMP2 expression in human HeLa cells incubated for 48 hrs by Western blot analysis; type: functional, cell-based; conditions: dose 2-8 µM
HepG2 = assay: Antiproliferative activity against human HepG2 cells incubated for 48 hrs by CCK8 assay; type: functional, cell-based; conditions: HepG2, 48 h
HeLa [6] = assay: Effect on PRMT1 expression in human HeLa cells at 2 to 8 uM incubated for 48 hrs by Western blot analysis; type: functional, cell-based; conditions: dose 2-8 µM
HeLa [7] = assay: Induction of early apoptosis in human HeLa cells assessed as reduction in number of cells incubated for 24 hrs by hoechst staining based analysis; type: functional, cell-based; conditions: dose <= 32.0 µM
HeLa [8] = assay: Induction of early apoptosis in human HeLa cells assessed as nuclear edge fusion incubated for 24 hrs by hoechst staining based analysis; type: functional, cell-based; conditions: dose <= 32.0 µM
HeLa [9] = assay: Inhibition of cell migration in human HeLa cells incubated upto 48 hrs by scratch wound healing assay; type: functional, cell-based; conditions: dose 2-8 µM
HeLa [10] = assay: Induction of apoptosis in human HeLa cells assessed as necrotic cells at 32 uM incubated for 24 hrs by flow cytometry (reference value: 1.10 %); type: functional
HeLa [11] = assay: Induction of apoptosis in human HeLa cells assessed as viable cells at 16 uM incubated for 24 hrs by flow cytometry (reference value: 66.3 %); type: functional; conditions: read-out: Activity
HeLa [12] = assay: Induction of early apoptosis in human HeLa cells assessed as dense nuclei incubated for 24 hrs by hoechst staining based analysis; type: functional, cell-based; conditions: dose <= 32.0 µM
HeLa [13] = assay: Downregulation of ADMA expression in human HeLa cells incubated for 48 hrs by Western blot analysis; type: functional, cell-based; conditions: dose 2-8 µM
HeLa [14] = assay: Downregulation of pro-caspase 9 expression in human HeLa cells incubated for 48 hrs by Western blot analysis; type: functional, cell-based; conditions: dose 2-8 µM
[15] = target: T1, Protein arginine N-methyltransferase 1; assay: Displacement of [3H]SAM from PRMT1 (unknown origin) preincubated for 15 mins followed by [3H]SAM addition measured after 60 mins by radiometric/luminescence based assay
Target sequence in this assay (Q99873 whole entry): as the sequence (Q99873 whole entry, looked up) above

HeLa [16] = assay: Induction of apoptosis in human HeLa cells assessed as early apoptotic cells at 32 uM incubated for 24 hrs by flow cytometry (reference value: 28.2 %); type: functional
HeLa [17] = assay: Induction of apoptosis in human HeLa cells assessed as viable cells at 32 uM incubated for 24 hrs by flow cytometry (reference value: 66.3 %); type: functional; conditions: read-out: Activity
HeLa [18] = assay: Induction of apoptosis in human HeLa cells assessed as early apoptotic cells at 16 uM incubated for 24 hrs by flow cytometry (reference value: 28.2 %); type: functional
HeLa [19] = assay: Inhibition of cell migration in human HeLa cells incubated at 24 hrs by crystal violet staining based transwell assay; type: functional; conditions: dose 2-8 µM
[20] = target: Protein arginine N-methyltransferase 5 (Homo sapiens) (UniProt O14744); assay: Inhibition of PRMT5 (unknown origin) using SAM as substrate incubated for 60 mins by chemiluminescence based assay
HeLa [21] = assay: Induction of apoptosis in human HeLa cells assessed as late apoptotic cells at 8 uM incubated for 24 hrs by flow cytometry (reference value: 4.37 %); type: functional
HeLa [22] = assay: Induction of apoptosis in human HeLa cells assessed as late apoptotic cells at 32 uM incubated for 24 hrs by flow cytometry (reference value: 4.37 %); type: functional
HeLa [23] = assay: Induction of apoptosis in human HeLa cells assessed as late apoptotic cells at 16 uM incubated for 24 hrs by flow cytometry (reference value: 4.37 %); type: functional
HeLa [24] = assay: Induction of apoptosis in human HeLa cells assessed as early apoptotic cells at 8 uM incubated for 24 hrs by flow cytometry (reference value: 28.2 %); type: functional
HeLa [25] = assay: Induction of apoptosis in human HeLa cells assessed as necrotic cells at 8 uM incubated for 24 hrs by flow cytometry (reference value: 1.10 %); type: functional
HeLa [26] = assay: Induction of early apoptosis in human HeLa cells assessed as nuclear fragmentation incubated for 24 hrs by hoechst staining based analysis; type: functional, cell-based; conditions: dose <= 32.0 µM
A549 = assay: Antiproliferative activity against human A549 cells incubated for 48 hrs by CCK8 assay; type: functional, cell-based; conditions: A549, 48 h
HeLa [27] = assay: Induction of apoptosis in human HeLa cells assessed as necrotic cells at 16 uM incubated for 24 hrs by flow cytometry (reference value: 1.10 %); type: functional
HeLa [28] = assay: Downregulation of N-Cadherin expression in human HeLa cells incubated for 48 hrs by Western blot analysis; type: functional, cell-based; conditions: dose 2-8 µM
HeLa [29] = assay: Induction of apoptosis in human HeLa cells assessed as viable cells at 8 uM incubated for 24 hrs by flow cytometry (reference value: 66.3 %); type: functional; conditions: read-out: Activity
MDA-MB-231 = assay: Antiproliferative activity against human MDA-MB-231 cells incubated for 48 hrs by CCK8 assay; type: functional, cell-based; conditions: MDA-MB-231, 48 h

Chain of Protein arginine N-methyltransferase 5 (Homo sapiens) (O14744 whole entry): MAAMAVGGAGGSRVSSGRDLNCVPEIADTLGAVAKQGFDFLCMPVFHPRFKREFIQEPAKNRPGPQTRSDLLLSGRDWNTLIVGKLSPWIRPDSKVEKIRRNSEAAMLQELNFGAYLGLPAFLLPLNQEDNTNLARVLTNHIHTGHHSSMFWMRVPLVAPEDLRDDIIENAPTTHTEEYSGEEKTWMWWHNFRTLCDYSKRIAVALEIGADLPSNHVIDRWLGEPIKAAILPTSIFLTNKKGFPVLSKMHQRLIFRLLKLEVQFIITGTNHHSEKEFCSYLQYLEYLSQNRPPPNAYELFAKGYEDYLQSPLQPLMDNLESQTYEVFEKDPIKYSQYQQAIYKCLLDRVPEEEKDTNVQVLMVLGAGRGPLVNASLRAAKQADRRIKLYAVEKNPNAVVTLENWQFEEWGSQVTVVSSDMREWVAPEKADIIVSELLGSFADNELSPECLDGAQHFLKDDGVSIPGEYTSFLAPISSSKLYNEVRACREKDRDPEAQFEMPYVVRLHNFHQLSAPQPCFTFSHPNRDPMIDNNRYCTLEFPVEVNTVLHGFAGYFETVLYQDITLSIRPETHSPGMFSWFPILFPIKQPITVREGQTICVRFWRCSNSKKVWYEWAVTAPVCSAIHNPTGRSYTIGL

Molecule `CNCCN(C)Cc1sc(-c2cccc(OC(F)(F)F)c2)nc1-c1ccc(OC)cc1` has an inhibition [1] of 21%.
Work on `CNCCN(C)Cc1sc(-c2ccc(OC(F)(F)F)cc2)nc1-c1cccc(OC)c1` yielded an inhibition [1] of 35%.
In the case of `CNCCN(C)Cc1sc(-c2cccc(OC(F)(F)F)c2)nc1-c1cccc(OC)c1`, the inhibition [1] is reported as 31%.
For `CNCCN(C)Cc1sc(-c2ccc(OC)cc2)nc1-c1ccc(OC)cc1.Cl`, the Activity (HeLa [2]) was “Active”, the Activity (HeLa [3]) was “inactive” and the IC50 (HeLa [4]) was 9.43 µM. For the same molecule, the Activity (HeLa [5]) was “Dose-Dependent Effect”, the IC50 (HepG2) was 16 µM and the Activity (HeLa [6]) was “inactive”. For the same molecule, the Activity (HeLa [7]) was “Dose-Dependent Effect”, the Activity (HeLa [8]) was “Dose-Dependent Effect” and the inhibition (HeLa [9]) was “Dose-Dependent Effect”. The Activity (HeLa [10]) was 0.97%, the viability at 16 µM (HeLa [11]) was 29.3% and the Activity (HeLa [12]) was “Dose-Dependent Effect”. The Activity (HeLa [13]) was “Dose-Dependent Effect”, the Activity (HeLa [14]) was “Active” and the IC50 [15] was 11.8 µM. It also gave an Activity (HeLa [16]) of 64.8%, a viability at 32 µM (HeLa [17]) of 11.3% and an inhibition [1] of 60%. The Activity (HeLa [18]) was 51.9%, the inhibition (HeLa [19]) was “Dose-Dependent Effect” and the inhibition [20] was 2.52%. It also gave an Activity (HeLa [21]) of 6.65%, an Activity (HeLa [22]) of 22.9% and an Activity (HeLa [23]) of 17.5%. The Activity (HeLa [24]) was 35.9%, the Activity (HeLa [25]) was 1.33% and the Activity (HeLa [26]) was “Dose-Dependent Effect”. The IC50 (A549) was 18.4 µM, the Activity (HeLa [27]) was 1.33% and the Activity (HeLa [28]) was “Dose-Dependent Effect”. The viability at 8 µM (HeLa [29]) was 56.2% and the IC50 (MDA-MB-231) was 16.9 µM.
With `CNCCNCc1sc(-c2ccc(OC)cc2)nc1-c1ccc(OC)cc1` the inhibition [1] was 7%.
In the case of `N=C(N)c1ccc(-c2ccc(-c3ccc(C(=N)N)cc3)o2)cc1`, the inhibition [1] is reported as 98.1%.
`CNCCN(C)Cc1sc(-c2cccc(OC)c2)nc1-c1ccc(OC)cc1` gave an inhibition [1] of 43%.
For `CNCCN(C)Cc1sc(-c2ccc(N3CCOCC3)cc2)nc1-c1ccc(OC)cc1`, the IC50 (HeLa [4]) was 19.4 µM, the IC50 (HepG2) was 20 µM and the IC50 [15] was 7.07 µM. It also gave an inhibition [1] of 56%, an inhibition [20] of 6% and an IC50 (A549) of 33.9 µM. The IC50 (MDA-MB-231) was 31.4 µM.
Molecule `CNCCN(C)Cc1sc(-c2cccc(N3CCOCC3)c2)nc1-c1ccc(OC)cc1` has an inhibition [1] of 30%.
`CNCCN(C)Cc1sc(-c2ccc(OC(F)(F)F)cc2)nc1-c1ccc(OC)cc1` showed an inhibition [1] of 39%.
